Laboratory results: the supplement of paper PMC9663587

What was measured:
[1] = compound: COc1ccc2c(c1)[C@]1(C[C@H]1c1ccc3c(/C=C/c4ccc(CN5C[C@@H](C)O[C@@H](C)C5)cc4)n[nH]c3c1)C(=O)N2
[2] = compound: CO[C@@H](C)Cn1c(=O)n(C)c2cnc3ccc(-c4cncc(C(C)(C)O)c4)cc3c21
Alpelisib/BYL719 = compound: Cc1nc(NC(=O)N2CCC[C@H]2C(N)=O)sc1-c1ccnc(C(C)(C)C(F)(F)F)c1 [Alpelisib/BYL719]
[3] = compound: CC(=O)Nc1cccc(-n2c(=O)n(C3CC3)c(=O)c3c(Nc4ccc(I)cc4F)n(C)c(=O)c(C)c32)c1
[4] = compound: CCCCOc1c(C(=O)c2c(F)cc(C)cc2F)c[nH]c2nncc1-2
Rucaparib = compound: CNCc1ccc(-c2[nH]c3cc(F)cc4c3c2CCNC4=O)cc1 [Rucaparib]
Cediranib/AZD2171 = compound: COc1cc2c(Oc3ccc4[nH]c(C)cc4c3F)ncnc2cc1OCCCN1CCCC1 [Cediranib/AZD2171]
Saracatinib/AZD0530 = compound: CN1CCN(CCOc2cc(OC3CCOCC3)c3c(Nc4c(Cl)ccc5c4OCO5)ncnc3c2)CC1 [Saracatinib/AZD0530]
AZD1775 = compound: C=CCn1c(=O)c2cnc(Nc3ccc(N4CCN(C)CC4)cc3)nc2n1-c1cccc(C(C)(C)O)n1 [AZD1775]
THZ1 [5] = compound: T1, CN(C)C/C=C/C(=O)Nc1ccc(C(=O)Nc2cccc(Nc3ncc(Cl)c(-c4c[nH]c5ccccc45)n3)c2)cc1 [THZ1]
THZ531 [6] = compound: T2, CN(C)C/C=C/C(=O)Nc1ccc(C(=O)N2CCC[C@@H](Nc3ncc(Cl)c(-c4c[nH]c5ccccc45)n3)C2)cc1 [THZ531]
BVD523 = compound: CC(C)Nc1cc(-c2c[nH]c(C(=O)N[C@H](CO)c3cccc(Cl)c3)c2)c(Cl)cn1 [BVD523]
[7] = compound: CC(=O)c1c(C)c2cnc(Nc3ccc(N4CCNCC4)cn3)nc2n(C2CCCC2)c1=O; assay: increase in dead-cell fraction, 72 h; higher = more death;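 note: breast cancer cell lines in 384-well plates, stained with Hoechst plus LIVE/DEAD far red dye and imaged, cells above an LDR intensity threshold counted dead, Hoechst-negative corpses included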
Neratinib/HKI272 = compound: CCOc1cc2ncc(C#N)c(Nc3ccc(OCc4ccccn4)c(Cl)c3)c2cc1NC(=O)/C=C/CN(C)C [Neratinib/HKI272]; assay: as above
YKL-5-124 = compound: C=CC(=O)Nc1ccc(C(=O)Nc2[nH]nc3c2CN(C(=O)N[C@H](CN(C)C)c2ccccc2)C3(C)C)cc1 [YKL-5-124]; assay: as above
BSJ-03-123 = compound: CC(=O)c1c(C)c2cnc(Nc3ccc(N4CCN(CCOCCOCCOCCNC(=O)COc5cccc6c5C(=O)N(C5CCC(=O)NC5=O)C6=O)CC4)cn3)nc2n(C2CCCC2)c1=O [BSJ-03-123]; assay: as above
LEE011/Ribociclib = compound: CN(C)C(=O)c1cc2cnc(Nc3ccc(N4CCNCC4)cn3)nc2n1C1CCCC1 [LEE011/Ribociclib]; assay: as above
[8] = compound: CCc1cnn2c(NCc3ccc[n+]([O-])c3)cc(N3CCCC[C@H]3CCO)nc12; assay: as above
THZ1 [9] = compound: T1, THZ1; assay: as above
THZ531 [10] = compound: T2, THZ531; assay: as above
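Throughout, for GR50, 72 h: breast cancer and non-malignant breast epithelial cell lines, Deep Dye Drop or Dye Drop imaging, nine half-log doses, GR normalized to time-zero plates and DMSO-only controls.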

Cell Line: HCC1954
- GR50, 72 h [1]: 0.00444 µM
- GR50, 72 h [2]: < 0.001 µM
- GR50, 72 h (Alpelisib/BYL719): 1.23 µM
- GR50, 72 h [3]: 0.0167 µM
- GR50, 72 h [4]: < 0.001 µM
- GR50, 72 h (Rucaparib): > 10 µM
- GR50, 72 h (Cediranib/AZD2171): 4.08 µM
- GR50, 72 h (Saracatinib/AZD0530): 2.12 µM
- GR50, 72 h (AZD1775): 1.58 µM
- GR50, 72 h (THZ1 [5]): 0.0995 µM
- GR50, 72 h (THZ531 [6]): 0.362 µM
- GR50, 72 h (BVD523): 2.94 µM
- increase in dead-cell fraction ([7]; 0.0003162 µM): -0.0089
- increase in dead-cell fraction ([7]; 0.001 µM): -0.001
- increase in dead-cell fraction ([7]; 0.003162 µM): -0.0131
- increase in dead-cell fraction ([7]; 0.01 µM): -0.0027
- increase in dead-cell fraction ([7]; 0.03162 µM): -0.0121
- increase in dead-cell fraction ([7]; 0.1 µM): -0.0026
- increase in dead-cell fraction ([7]; 0.3162 µM): -0.0021
- increase in dead-cell fraction ([7]; 1 µM): -0.0019
- increase in dead-cell fraction ([7]; 3.162 µM): 0.0043
- increase in dead-cell fraction (Neratinib/HKI272; 0.0003162 µM): 0.0018
- increase in dead-cell fraction (Neratinib/HKI272; 0.001 µM): 0.0012
- increase in dead-cell fraction (Neratinib/HKI272; 0.003162 µM): 0.0264
- increase in dead-cell fraction (Neratinib/HKI272; 0.01 µM): 0.0121
- increase in dead-cell fraction (Neratinib/HKI272; 0.03162 µM): 0.0581
- increase in dead-cell fraction (Neratinib/HKI272; 0.1 µM): 0.111
- increase in dead-cell fraction (Neratinib/HKI272; 0.3162 µM): 0.17
- increase in dead-cell fraction (Neratinib/HKI272; 1 µM): 0.264
- increase in dead-cell fraction (Neratinib/HKI272; 3.162 µM): 0.42
- increase in dead-cell fraction (YKL-5-124; 0.001 µM): 0.076
- increase in dead-cell fraction (YKL-5-124; 0.003162 µM): 0.0781
- increase in dead-cell fraction (YKL-5-124; 0.01 µM): 0.11
- increase in dead-cell fraction (YKL-5-124; 0.03162 µM): 0.0779
- increase in dead-cell fraction (YKL-5-124; 0.1 µM): 0.129
- increase in dead-cell fraction (YKL-5-124; 0.3162 µM): 0.104
- increase in dead-cell fraction (YKL-5-124; 1 µM): 0.102
- increase in dead-cell fraction (YKL-5-124; 3.162 µM): 0.0854
- increase in dead-cell fraction (YKL-5-124; 10 µM): 0.15
- increase in dead-cell fraction (BSJ-03-123; 0.001 µM): 0.0014
- increase in dead-cell fraction (BSJ-03-123; 0.003162 µM): 0.0109
- increase in dead-cell fraction (BSJ-03-123; 0.01 µM): 0.0001
- increase in dead-cell fraction (BSJ-03-123; 0.03162 µM): 0.004
- increase in dead-cell fraction (BSJ-03-123; 0.1 µM): 0.0138
- increase in dead-cell fraction (BSJ-03-123; 0.3162 µM): 0.0101
- increase in dead-cell fraction (BSJ-03-123; 1 µM): 0.0096
- increase in dead-cell fraction (BSJ-03-123; 3.162 µM): 0.0252
- increase in dead-cell fraction (BSJ-03-123; 10 µM): 0.141
- increase in dead-cell fraction (LEE011/Ribociclib; 0.001 µM): 0.0048
- increase in dead-cell fraction (LEE011/Ribociclib; 0.003162 µM): 0.0062
- increase in dead-cell fraction (LEE011/Ribociclib; 0.01 µM): -0.0065
- increase in dead-cell fraction (LEE011/Ribociclib; 0.03162 µM): 0.0067
- increase in dead-cell fraction (LEE011/Ribociclib; 0.1 µM): 0.006
- increase in dead-cell fraction (LEE011/Ribociclib; 0.3162 µM): 0.0179
- increase in dead-cell fraction (LEE011/Ribociclib; 1 µM): 0.0102
- increase in dead-cell fraction (LEE011/Ribociclib; 3.162 µM): 0.0144
- increase in dead-cell fraction (LEE011/Ribociclib; 10 µM): 0.0111
- increase in dead-cell fraction ([8]; 0.0001 µM): -0.0062
- increase in dead-cell fraction ([8]; 0.0003162 µM): -0.012
- increase in dead-cell fraction ([8]; 0.001 µM): -0.0086
- increase in dead-cell fraction ([8]; 0.003162 µM): -0.0038
- increase in dead-cell fraction ([8]; 0.01 µM): 0.0856
- increase in dead-cell fraction ([8]; 0.03162 µM): 0.615
- increase in dead-cell fraction ([8]; 0.1 µM): 0.704
- increase in dead-cell fraction ([8]; 0.3162 µM): 0.691
- increase in dead-cell fraction ([8]; 1 µM): 0.7
- increase in dead-cell fraction (THZ1 [9]; 0.0001 µM): -0.0011
- increase in dead-cell fraction (THZ1 [9]; 0.0003162 µM): 0.0018
- increase in dead-cell fraction (THZ1 [9]; 0.001 µM): 0.0068
- increase in dead-cell fraction (THZ1 [9]; 0.003162 µM): -0.0006
- increase in dead-cell fraction (THZ1 [9]; 0.01 µM): -0.0054
- increase in dead-cell fraction (THZ1 [9]; 0.03162 µM): 0.0087
- increase in dead-cell fraction (THZ1 [9]; 0.1 µM): 0.0688
- increase in dead-cell fraction (THZ1 [9]; 0.3162 µM): 0.153
- increase in dead-cell fraction (THZ1 [9]; 1 µM): 0.596
- increase in dead-cell fraction (THZ531 [10]; 0.0001 µM): 0.0002
- increase in dead-cell fraction (THZ531 [10]; 0.0003162 µM): 0.0055
- increase in dead-cell fraction (THZ531 [10]; 0.001 µM): 0.0013
- increase in dead-cell fraction (THZ531 [10]; 0.003162 µM): 0.0058
- increase in dead-cell fraction (THZ531 [10]; 0.01 µM): 0.0048
- increase in dead-cell fraction (THZ531 [10]; 0.03162 µM): 0.004
- increase in dead-cell fraction (THZ531 [10]; 0.1 µM): 0.0127
- increase in dead-cell fraction (THZ531 [10]; 0.3162 µM): 0.0525
- increase in dead-cell fraction (THZ531 [10]; 1 µM): 0.42
